Data on 30 molecules can be found in the Kinase Knowledgebase extract (Sharma et al. 2016).

Structures are written as SMILES.

Assay [1] addresses PIK3CA (human) (UniProt P42336). In words: Inhibition of A2780 Cell Proliferation.
Assay [2] shares this target. In words: Inhibition of PIK3CA Kinase Activity.
In assay [3] the target is PIK3CD (Human) (UniProt O00329). In words: Assessment of PIK3CD Kinase Binding Activity.
For assay [4], the target named is PIK3CA (human) (UniProt P42336). In words: Assessment of PIK3CA Kinase Binding Activity.
Chain of PIK3CA (human) (P42336 whole entry, looked up): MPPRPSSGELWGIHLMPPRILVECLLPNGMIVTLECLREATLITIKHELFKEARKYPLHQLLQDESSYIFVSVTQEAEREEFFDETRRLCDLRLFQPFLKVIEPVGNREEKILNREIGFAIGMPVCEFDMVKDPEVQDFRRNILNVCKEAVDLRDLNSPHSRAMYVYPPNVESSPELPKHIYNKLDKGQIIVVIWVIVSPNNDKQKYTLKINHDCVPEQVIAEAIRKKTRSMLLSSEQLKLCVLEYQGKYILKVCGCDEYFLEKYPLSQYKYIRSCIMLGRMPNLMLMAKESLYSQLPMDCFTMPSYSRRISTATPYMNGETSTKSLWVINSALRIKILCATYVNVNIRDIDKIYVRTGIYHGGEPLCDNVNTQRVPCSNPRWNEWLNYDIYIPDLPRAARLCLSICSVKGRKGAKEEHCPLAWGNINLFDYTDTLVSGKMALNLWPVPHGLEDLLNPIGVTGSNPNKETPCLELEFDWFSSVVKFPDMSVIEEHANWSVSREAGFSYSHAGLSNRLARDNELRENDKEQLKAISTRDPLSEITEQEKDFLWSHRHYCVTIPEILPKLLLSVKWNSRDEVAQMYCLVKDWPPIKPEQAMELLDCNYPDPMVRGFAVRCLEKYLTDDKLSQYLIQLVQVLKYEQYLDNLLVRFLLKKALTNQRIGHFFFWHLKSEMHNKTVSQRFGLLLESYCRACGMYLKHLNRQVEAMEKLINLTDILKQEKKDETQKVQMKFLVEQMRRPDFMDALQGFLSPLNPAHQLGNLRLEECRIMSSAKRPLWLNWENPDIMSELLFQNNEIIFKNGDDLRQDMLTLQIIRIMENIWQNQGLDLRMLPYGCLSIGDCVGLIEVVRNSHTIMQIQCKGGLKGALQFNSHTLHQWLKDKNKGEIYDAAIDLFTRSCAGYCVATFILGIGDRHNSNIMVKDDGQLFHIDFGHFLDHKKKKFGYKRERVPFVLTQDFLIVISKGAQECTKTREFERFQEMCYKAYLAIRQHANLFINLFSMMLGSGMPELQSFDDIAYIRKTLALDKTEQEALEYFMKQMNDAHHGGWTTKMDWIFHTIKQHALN
Assay [5] addresses PIK3CG (human) (UniProt P48736). Description: Assessment of PIK3CG Kinase Binding Activity.
Assay [6] deals with PIK3CB (Human) (UniProt P42338). Description: Assessment of PIK3CB Kinase Binding Activity.
Chain of PIK3CB (Human) (P42338 whole entry, looked up): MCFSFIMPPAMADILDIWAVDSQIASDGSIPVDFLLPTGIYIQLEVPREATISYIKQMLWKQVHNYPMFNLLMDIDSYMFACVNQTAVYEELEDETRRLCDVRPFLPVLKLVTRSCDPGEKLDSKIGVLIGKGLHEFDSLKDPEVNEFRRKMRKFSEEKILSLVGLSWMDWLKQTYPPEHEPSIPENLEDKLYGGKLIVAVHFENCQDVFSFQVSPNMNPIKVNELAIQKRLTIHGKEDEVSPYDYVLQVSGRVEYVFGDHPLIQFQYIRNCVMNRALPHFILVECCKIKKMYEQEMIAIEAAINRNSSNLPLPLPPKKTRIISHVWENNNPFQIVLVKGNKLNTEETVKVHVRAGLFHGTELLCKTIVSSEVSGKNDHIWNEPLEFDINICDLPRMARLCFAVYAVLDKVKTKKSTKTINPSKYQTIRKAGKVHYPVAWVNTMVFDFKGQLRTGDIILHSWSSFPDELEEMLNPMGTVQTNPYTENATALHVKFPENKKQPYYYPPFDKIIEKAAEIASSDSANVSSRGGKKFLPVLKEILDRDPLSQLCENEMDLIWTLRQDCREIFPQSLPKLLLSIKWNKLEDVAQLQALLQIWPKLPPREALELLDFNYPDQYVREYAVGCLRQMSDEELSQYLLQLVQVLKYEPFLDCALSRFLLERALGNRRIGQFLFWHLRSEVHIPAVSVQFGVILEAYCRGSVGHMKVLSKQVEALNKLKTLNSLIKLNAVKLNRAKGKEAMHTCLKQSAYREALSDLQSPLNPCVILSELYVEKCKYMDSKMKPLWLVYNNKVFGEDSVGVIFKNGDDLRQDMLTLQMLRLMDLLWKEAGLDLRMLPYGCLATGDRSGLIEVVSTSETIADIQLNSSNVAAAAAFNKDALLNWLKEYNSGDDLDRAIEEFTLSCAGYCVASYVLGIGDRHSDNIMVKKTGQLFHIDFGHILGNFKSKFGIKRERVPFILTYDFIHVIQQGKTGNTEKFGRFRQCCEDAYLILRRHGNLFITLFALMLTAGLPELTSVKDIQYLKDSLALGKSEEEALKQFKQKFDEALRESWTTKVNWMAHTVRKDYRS

Chain of PIK3CG (human) (P48736 whole entry, looked up): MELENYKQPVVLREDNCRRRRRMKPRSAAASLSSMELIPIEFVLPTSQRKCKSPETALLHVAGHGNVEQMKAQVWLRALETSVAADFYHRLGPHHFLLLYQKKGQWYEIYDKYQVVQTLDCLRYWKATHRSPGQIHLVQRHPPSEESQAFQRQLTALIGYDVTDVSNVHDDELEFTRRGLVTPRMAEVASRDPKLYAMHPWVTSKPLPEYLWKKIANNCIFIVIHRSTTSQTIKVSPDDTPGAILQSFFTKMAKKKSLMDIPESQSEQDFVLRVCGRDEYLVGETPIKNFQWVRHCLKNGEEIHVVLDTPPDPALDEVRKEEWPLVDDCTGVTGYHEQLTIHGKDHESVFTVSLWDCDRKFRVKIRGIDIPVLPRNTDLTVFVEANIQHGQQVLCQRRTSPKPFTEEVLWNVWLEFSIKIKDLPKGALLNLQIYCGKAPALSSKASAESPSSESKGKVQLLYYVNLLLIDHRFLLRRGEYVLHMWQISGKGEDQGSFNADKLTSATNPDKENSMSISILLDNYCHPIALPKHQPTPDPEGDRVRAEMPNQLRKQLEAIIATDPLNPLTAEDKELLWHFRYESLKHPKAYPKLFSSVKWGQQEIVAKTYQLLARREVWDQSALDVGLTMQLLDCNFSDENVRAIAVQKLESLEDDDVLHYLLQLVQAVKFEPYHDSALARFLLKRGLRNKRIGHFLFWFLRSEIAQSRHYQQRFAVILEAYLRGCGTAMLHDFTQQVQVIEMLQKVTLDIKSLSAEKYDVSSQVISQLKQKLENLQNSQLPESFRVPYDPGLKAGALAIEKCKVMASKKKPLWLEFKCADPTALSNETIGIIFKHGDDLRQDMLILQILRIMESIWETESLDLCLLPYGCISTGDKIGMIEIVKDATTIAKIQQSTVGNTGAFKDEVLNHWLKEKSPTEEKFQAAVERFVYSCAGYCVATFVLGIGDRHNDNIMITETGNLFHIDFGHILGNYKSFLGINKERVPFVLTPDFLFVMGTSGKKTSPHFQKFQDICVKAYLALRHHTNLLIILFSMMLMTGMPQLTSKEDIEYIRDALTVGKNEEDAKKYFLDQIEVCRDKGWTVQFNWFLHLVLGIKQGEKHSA
Chain of PIK3CD (Human) (O00329 whole entry, looked up): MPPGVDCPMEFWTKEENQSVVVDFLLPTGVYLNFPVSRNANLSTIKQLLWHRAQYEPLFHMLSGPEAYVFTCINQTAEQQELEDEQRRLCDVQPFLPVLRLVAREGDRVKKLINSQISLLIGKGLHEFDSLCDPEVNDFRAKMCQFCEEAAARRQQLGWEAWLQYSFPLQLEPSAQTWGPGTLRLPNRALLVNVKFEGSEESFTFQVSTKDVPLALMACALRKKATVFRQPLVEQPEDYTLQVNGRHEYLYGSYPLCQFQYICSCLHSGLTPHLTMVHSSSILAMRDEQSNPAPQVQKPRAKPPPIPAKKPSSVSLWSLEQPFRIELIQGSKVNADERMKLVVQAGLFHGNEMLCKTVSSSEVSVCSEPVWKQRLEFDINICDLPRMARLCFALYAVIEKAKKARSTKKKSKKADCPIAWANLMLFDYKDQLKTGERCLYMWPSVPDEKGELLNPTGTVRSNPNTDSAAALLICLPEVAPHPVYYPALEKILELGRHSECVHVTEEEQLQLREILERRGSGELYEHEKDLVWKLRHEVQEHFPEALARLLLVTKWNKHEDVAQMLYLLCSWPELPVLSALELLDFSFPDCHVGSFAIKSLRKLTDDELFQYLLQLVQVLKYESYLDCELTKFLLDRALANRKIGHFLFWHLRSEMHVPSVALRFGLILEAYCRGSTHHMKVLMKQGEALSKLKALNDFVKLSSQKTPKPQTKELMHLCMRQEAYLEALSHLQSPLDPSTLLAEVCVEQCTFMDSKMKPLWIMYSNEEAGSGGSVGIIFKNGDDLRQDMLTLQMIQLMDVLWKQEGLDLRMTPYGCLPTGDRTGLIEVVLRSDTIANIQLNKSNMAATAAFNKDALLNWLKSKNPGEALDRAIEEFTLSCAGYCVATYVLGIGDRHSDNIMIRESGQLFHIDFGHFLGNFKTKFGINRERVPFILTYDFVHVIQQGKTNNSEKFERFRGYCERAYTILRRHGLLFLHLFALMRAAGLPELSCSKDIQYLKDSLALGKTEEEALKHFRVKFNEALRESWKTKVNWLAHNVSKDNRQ

As for `Nc1ccc(-c2ccc3nc(NC(=O)CCCN4CCOCC4)sc3c2)cn1`, the EC50 (usually the concentration at which the effect is half-maximal) in assay [1] is less than 25000 nM. Moreover, the IC50 – broadly, the midpoint of a concentration-inhibition curve – in assay [2] was less than 1000 nM.
On the same counts, the results for `CC(=O)Nc1cn2cc(-c3cnc(N)c(-c4ccccc4)n3)ccc2n1` are less than 10000 nM and less than 1000 nM.
Molecule `CC(=O)Nc1cn2nc(-c3cnc(N)c(C(=O)NCCNS(C)(=O)=O)c3)ccc2n1` registered an EC50 in assay [1] of less than 25000 nM. In assay [2], this molecule registered an IC50 of less than 1000 nM.
Consider `CC(=O)Nc1cn2cc(-c3cnc(N)c(C(F)(F)F)c3)cc(F)c2n1`, for which the EC50 in assay [1] is less than 10000 nM. The same molecule came in with an IC50 in assay [2] of less than 1000 nM.
Molecule `CC(=O)Nc1cn2nc(-c3cnc(N)c(CN4CCCC4)c3)ccc2n1` gave an EC50 in assay [1] of less than 10000 nM. Further, the IC50 in assay [2] is less than 1000 nM.
As for `CC(C)(C)OC(=O)NCCC(=O)Nc1cn2nc(-c3cnc(N)c(C(F)(F)F)c3)ccc2n1`, the EC50 in assay [1] is less than 10000 nM. In assay [2], this molecule yielded an IC50 of less than 1000 nM.
For `Nc1ncc(-c2ccc3nc(NC(=O)C4CCN4)cn3c2)nc1OCC(F)(F)F` (configuration not stated), the concentration for a half-maximal effect (EC50) in assay [1] is less than 10000 nM. This molecule returned an IC50 in assay [2] of less than 1000 nM.
`CC(=O)Nc1cn2cc(-c3cnc(N)c(C(=O)NCCO)n3)ccc2n1`: the EC50 in assay [1] was less than 25000 nM. This molecule also registered an IC50 in assay [2] of less than 1000 nM.
`Nc1ncc(-c2ccc3nc(NC(=O)N4CCCC4C(F)(F)F)cn3c2)cc1C(F)(F)F` (configuration not stated) displayed an EC50 in assay [1] of less than 10000 nM. For the same molecule, the IC50 in assay [2] was less than 1000 nM.
`Nc1ncc(-c2ccc3nc(NC(=O)N4CC[C@H]4C(=O)O)cn3c2)cc1C(F)(F)F` registered an EC50 in assay [1] of less than 25000 nM. Further, the IC50 in assay [2] is less than 10000 nM.
`CC(=O)Nc1cn2nc(-c3cnc(N)cn3)ccc2n1` gave an EC50 in assay [1] of less than 25000 nM. The IC50 in assay [2] is less than 1000 nM.
On the same counts, the results for `CC(C)(C)OC(=O)N1CCCCC1CCC(=O)Nc1cn2nc(-c3cnc(N)c(C(F)(F)F)c3)ccc2n1` (configuration not stated) are less than 10000 nM and less than 1000 nM.
With `CC(=O)Nc1cn2nc(-c3cnc(N)cc3C(F)(F)F)ccc2n1`, in assay [1], the EC50 was less than 25000 nM. In assay [2], this molecule registered an IC50 of less than 1000 nM.
In turn, `CNC(=O)C1CCN(C(=O)Nc2cn3cc(-c4cnc(N)c(C(F)(F)F)c4)ccc3n2)C1` (configuration not stated) gave an EC50 in assay [1] of less than 25000 nM. The same molecule had an IC50 in assay [2] of less than 1000 nM.
Molecule `CC(=O)Nc1cn2cc(-c3cnc(N)c(C=NOC(C)(C)C)c3)ccc2n1` had a concentration for a half-maximal effect (EC50) in assay [1] of less than 25000 nM. In addition, the IC50 in assay [2] is less than 1000 nM.
Turning to `Nc1ncc(-c2ccc3nc(NC(=O)Cc4ccccn4)cn3c2)cc1C(F)(F)F`, the EC50 in assay [1] is less than 10000 nM. This molecule returned an IC50 in assay [2] of less than 1000 nM.
`CC(=O)Nc1nc2cc(C)c(-c3cnc(N)c(C(F)(F)F)c3)cc2s1` showed an EC50 in assay [1] of less than 25000 nM. Further, the IC50 in assay [2] was less than 1000 nM.
On the same counts, the results for `COc1cc(-c2ccc3nc(NC(C)=O)c(Br)n3c2)cnc1N` are less than 10000 nM and less than 1000 nM.
`COCCCOc1nc(-c2ccc3nc(NC(C)=O)cn3c2)cnc1N` had an EC50 in assay [1] of less than 1000 nM. This molecule returned an IC50 in assay [2] of less than 1000 nM.
The molecule `CC(=O)Nc1nc2ccc(-c3cnc(N)c(OCC(F)(F)F)n3)cc2s1` gave an EC50 in assay [1] of less than 1000 nM. The same molecule registered an IC50 in assay [2] of less than 1000 nM.
Turning to `COC(=O)CCCC(=O)Nc1cn2nc(-c3cnc(N)c(C(F)(F)F)c3)ccc2n1`, the EC50 in assay [1] was less than 10000 nM. In assay [2], this molecule yielded an IC50 of less than 1000 nM.
As to `CCN1CCC(OCC(=O)Nc2cn3cc(-c4cnc(N)c(C(F)(F)F)c4)ccc3n2)CC1`, the EC50 in assay [1] is less than 10000 nM. In assay [2], this molecule showed an IC50 of less than 1000 nM.
For `Nc1ncc(-c2ccc3nc(NC(=O)CN4CCCCC4)cn3n2)cc1C(F)(F)F`, the EC50 in assay [1] is less than 10000 nM. This molecule gave an IC50 in assay [2] of less than 1000 nM.
As to `Nc1ncc(-c2ccc3nc(NC(=O)NCCn4nnc(C5CC5)n4)cn3c2)cc1C(F)(F)F`, the Ki in assay [3], in assay [4], in assay [5] and in assay [6] was less than 1000 nM throughout.
Take `CC(=O)Nc1cccc(-c2c(NC(C)=O)nc3ccc(-c4cnc(N)c(C(F)(F)F)c4)cn23)c1`: the EC50 in assay [1] was less than 25000 nM. In addition, in assay [2], the IC50 is less than 1000 nM.
As to `CC(=O)Nc1nc2ccc(-c3cnc(N)c(C(F)(F)F)c3)cn2c1C#Cc1cccnc1`, the half-maximal effective concentration (EC50) in assay [1] is less than 1000 nM. Moreover, the IC50 in assay [2] was less than 1000 nM.
For the molecule `Nc1ncc(-c2ccc3nc(NC(=O)CCCC(=O)O)cn3n2)cc1C(F)(F)F`, in assay [1], the EC50 was less than 25000 nM. The IC50 in assay [2] is less than 1000 nM.
As for `CC(=O)Nc1nc2ccc(-c3cnc(N)c(C(F)(F)F)c3)cn2c1C#CCNC(=O)OC(C)(C)C`, in assay [1], the EC50 was less than 10000 nM. The molecule further displayed an IC50 in assay [2] of less than 1000 nM.
Turning to `CC(=O)Nc1nc2ccc(-c3cnc(N)c(CN(C)C)c3)cc2s1`, the EC50 in assay [1] was less than 10000 nM. Besides, in assay [2], the IC50 is less than 1000 nM.
For the molecule `CC(=O)Nc1cn2cc(-c3cnc(N)c(-c4ccc(C(F)(F)F)cc4)c3)ccc2n1`, the EC50 in assay [1] is less than 1000 nM. In assay [2], this molecule returned an IC50 of less than 1000 nM.
